Reference: ChEMBL document CHEMBL1201862, “PubChem BioAssay data set” (2004)
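48-hour exposure; five concentrations; linearly interpolated endpoints. The concentration for 50% growth inhibition is given as GI50.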 Activity calls are given as the source filed them. No stated cut-off is given here; in the data, active = GI50 up to about 1.1 µM and inactive = higher.

Tests used:
Test in all cases: NCI-60 cell line screen, 48 h
786-0 = test system: 786-0
A498 = test system: A498
A549 = test system: A549
ACHN = test system: ACHN
BT-549 = test system: BT-549
CAKI-1 = test system: CAKI-1
CCRF-CEM = test system: CCRF-CEM
COLO 205 = test system: COLO 205
DU-145 = test system: DU-145
EKVX = test system: EKVX
HCT-116 = test system: HCT-116
HCT-15 = test system: HCT-15
HOP-62 = test system: HOP-62
HOP-92 = test system: HOP-92
HT-29 = test system: HT-29
Hs-578T = test system: Hs-578T
IGROV-1 = test system: IGROV-1
K562 = test system: K562
KM12 = test system: KM12
LOX IMVI = test system: LOX IMVI
M14 = test system: M14
MCF7 = test system: MCF7
MDA-MB-231 = test system: MDA-MB-231
MDA-MB-435 = test system: MDA-MB-435
MDA-N = test system: MDA-N
MOLT-4 = test system: MOLT-4
Malme-3M = test system: Malme-3M
NCI-H226 = test system: NCI-H226
NCI-H23 = test system: NCI-H23
NCI-H460 = test system: NCI-H460
NCI-H522 = test system: NCI-H522
NCI/ADR-RES = test system: NCI/ADR-RES
OVCAR-3 = test system: OVCAR-3
OVCAR-4 = test system: OVCAR-4
OVCAR-5 = test system: OVCAR-5
OVCAR-8 = test system: OVCAR-8
PC-3 = test system: PC-3
RPMI-8226 = test system: RPMI-8226
RXF 393 = test system: RXF 393
SF-268 = test system: SF-268
SF-295 = test system: SF-295
SK-MEL-28 = test system: SK-MEL-28
SK-MEL-2 = test system: SK-MEL-2
SK-MEL-5 = test system: SK-MEL-5
SK-OV-3 = test system: SK-OV-3
SN12C = test system: SN12C
SNB-19 = test system: SNB-19
SNB-75 = test system: SNB-75
SR = test system: SR
SW-620 = test system: SW-620
T47D = test system: T47D
TK-10 = test system: TK-10
U-251 = test system: U-251
UACC-257 = test system: UACC-257
UACC-62 = test system: UACC-62
UO-31 = test system: UO-31
HCC 2998 = test system: HCC 2998
SF-539 = test system: SF-539

Structure (SMILES): COc1cccc(C23CCCC(C2)NCC3Br)c1OC (stereo not drawn)
- GI50 (786-0): 81.3 µM (inactive)
- GI50 (A498): 15.4 µM (inactive)
- GI50 (A549): 3.66 µM (inactive)
- GI50 (ACHN): 21 µM (inactive)
- GI50 (BT-549): 15.6 µM (inactive)
- GI50 (CAKI-1): 41.6 µM (inactive)
- GI50 (CCRF-CEM): 21.9 µM (inactive)
- GI50 (COLO 205): 11.9 µM (inactive)
- GI50 (DU-145): 53.8 µM (inactive)
- GI50 (EKVX): 28.4 µM (inactive)
- GI50 (HCT-116): 30.8 µM (inactive)
- GI50 (HCT-15): 40.9 µM
- GI50 (HOP-62): 38 µM (inactive)
- GI50 (HOP-92): 27.9 µM (inactive)
- GI50 (HT-29): 37.3 µM (inactive)
- GI50 (Hs-578T): 19.7 µM (inactive)
- GI50 (IGROV-1): 75.7 µM (inactive)
- GI50 (K562): 21.5 µM (inactive)
- GI50 (KM12): 35.1 µM (inactive)
- GI50 (LOX IMVI): 37.5 µM (inactive)
- GI50 (M14): 34.4 µM (inactive)
- GI50 (MCF7): 21.6 µM (inactive)
- GI50 (MDA-MB-231): > 100 µM (inactive)
- GI50 (MDA-MB-435): 39 µM (inactive)
- GI50 (MDA-N): 48.4 µM (inactive)
- GI50 (MOLT-4): 45 µM (inactive)
- GI50 (Malme-3M): > 100 µM (inactive)
- GI50 (NCI-H226): 0.154 µM (active)
- GI50 (NCI-H23): 15.3 µM (inactive)
- GI50 (NCI-H460): 17.9 µM (inactive)
- GI50 (NCI-H522): 10.2 µM (inactive)
- GI50 (NCI/ADR-RES): 31.1 µM (inactive)
- GI50 (OVCAR-3): 34.5 µM (inactive)
- GI50 (OVCAR-4): 35 µM (inactive)
- GI50 (OVCAR-5): 56.2 µM (inactive)
- GI50 (OVCAR-8): 11.2 µM (inactive)
- GI50 (PC-3): 30.5 µM (inactive)
- GI50 (RPMI-8226): 19.2 µM (inactive)
- GI50 (RXF 393): 92.3 µM (inactive)
- GI50 (SF-268): 23 µM (inactive)
- GI50 (SF-295): 38 µM (inactive)
- GI50 (SK-MEL-28): 48 µM (inactive)
- GI50 (SK-MEL-2): > 100 µM (inactive)
- GI50 (SK-MEL-5): 2.55 µM (inactive)
- GI50 (SK-OV-3): > 100 µM (inactive)
- GI50 (SN12C): 31 µM (inactive)
- GI50 (SNB-19): 42.3 µM (inactive)
- GI50 (SNB-75): 28.1 µM (inactive)
- GI50 (SR): 31.3 µM (inactive)
- GI50 (SW-620): 35.6 µM (inactive)
- GI50 (T47D): 26.3 µM (inactive)
- GI50 (TK-10): 36.9 µM (inactive)
- GI50 (U-251): 28.4 µM (inactive)
- GI50 (UACC-257): 8.39 µM (inactive)
- GI50 (UACC-62): 21.4 µM (inactive)
- GI50 (UO-31): 47.4 µM (inactive)

Structure (SMILES): CN1CCc2[nH]nc(-c3n[nH]c4c3CN(C)CC4)c2C1
- GI50 (786-0): > 100 µM (inactive)
- GI50 (A498): > 100 µM (inactive)
- GI50 (A549): > 100 µM (inactive)
- GI50 (ACHN): > 100 µM (inactive)
- GI50 (BT-549): > 100 µM (inactive)
- GI50 (CAKI-1): > 100 µM (inactive)
- GI50 (CCRF-CEM): 72.8 µM (inactive)
- GI50 (COLO 205): > 100 µM (inactive)
- GI50 (DU-145): > 100 µM (inactive)
- GI50 (EKVX): > 100 µM (inactive)
- GI50 (HCC 2998): > 100 µM (inactive)
- GI50 (HCT-116): > 100 µM (inactive)
- GI50 (HCT-15): > 100 µM
- GI50 (HOP-62): > 100 µM (inactive)
- GI50 (HOP-92): > 100 µM (inactive)
- GI50 (HT-29): > 100 µM (inactive)
- GI50 (Hs-578T): > 100 µM (inactive)
- GI50 (IGROV-1): > 100 µM (inactive)
- GI50 (K562): > 100 µM (inactive)
- GI50 (KM12): > 100 µM (inactive)
- GI50 (LOX IMVI): > 100 µM (inactive)
- GI50 (M14): > 100 µM (inactive)
- GI50 (MCF7): > 100 µM (inactive)
- GI50 (MDA-MB-231): > 100 µM (inactive)
- GI50 (MDA-MB-435): > 100 µM (inactive)
- GI50 (MDA-N): > 100 µM (inactive)
- GI50 (MOLT-4): > 100 µM (inactive)
- GI50 (Malme-3M): > 100 µM (inactive)
- GI50 (NCI-H226): > 100 µM (inactive)
- GI50 (NCI-H23): > 100 µM (inactive)
- GI50 (NCI-H460): > 100 µM (inactive)
- GI50 (NCI-H522): > 100 µM (inactive)
- GI50 (NCI/ADR-RES): > 100 µM (inactive)
- GI50 (OVCAR-3): > 100 µM (inactive)
- GI50 (OVCAR-4): > 100 µM (inactive)
- GI50 (OVCAR-5): > 100 µM (inactive)
- GI50 (OVCAR-8): > 100 µM (inactive)
- GI50 (PC-3): > 100 µM (inactive)
- GI50 (RPMI-8226): > 100 µM (inactive)
- GI50 (RXF 393): > 100 µM (inactive)
- GI50 (SF-268): > 100 µM (inactive)
- GI50 (SF-295): > 100 µM (inactive)
- GI50 (SF-539): > 100 µM (inactive)
- GI50 (SK-MEL-28): 44.9 µM (inactive)
- GI50 (SK-MEL-2): > 100 µM (inactive)
- GI50 (SK-MEL-5): > 100 µM (inactive)
- GI50 (SK-OV-3): > 100 µM (inactive)
- GI50 (SN12C): > 100 µM (inactive)
- GI50 (SNB-19): > 100 µM (inactive)
- GI50 (SR): > 100 µM (inactive)
- GI50 (SW-620): > 100 µM (inactive)
- GI50 (T47D): > 100 µM (inactive)
- GI50 (TK-10): > 100 µM (inactive)
- GI50 (U-251): > 100 µM (inactive)
- GI50 (UACC-257): > 100 µM (inactive)
- GI50 (UACC-62): > 100 µM (inactive)
- GI50 (UO-31): > 100 µM (inactive)
